# Earlier results, collected in US5196203A, “Theophylline dosage form” (priority 1989, dated 1993).
smiles,measurement,value
"Cn1c(=O)c2[nH]cnc2n(C)c1=O [Theophylline, 1,3-dimethylxanthine]",Effect at plasma concentrations above 20 mg/L,often associated with theophylline toxicity
